# Data published in patent publication US20250041286A1, “CANCER TREATMENT USING KETOTIFEN IN COMBINATION WITH A CHECKPOINT INHIBITOR” (Materia Therapeutics Inc., priority 2021, published 2025).
# Entries after “also recorded” stand apart in the source; their conditions may differ.
# Tests used:
# K7M2wt tumors = assay: Hypoxia study, pimonidazole adduct immunofluorescence; type: in vivo, mouse; conditions: 10 mg/kg ketotifen
# Protocol: Mice bearing orthotopic MCA205 or K7M2wt sarcoma tumors were injected (intraperitoneal) with 60 mg/kg of pimonidazole HCl at 2 hours prior to tumor removal. Tumors were removed, washed twice in 1×PBS for 10 minutes and incubated with 4% PFA overnight at 4° C. The fixative was aspirated, and samples were washed twice in 1×PBS for 10 min. Tissue samples were dehydrated in successive ethanol steps and xylene followed by paraffin embedding. Serial sections ([…]) of paraffin-embedded tissues were produced using the microtome (Accu-Cut SRM 200 Rotary Microtome, SAKURA), flattened out into water, and allowed to dry overnight at 37° C. Sections were then deparaffinized and rehydrated as routinely processed for histology. Slides were microwaved in TriSodium Citrate, blocked in serum solution, and incubated with mouse anti-pimonidazole RED 549 conjugate antibody (HP7-100Kit, 1:100) overnight at 4° C. The next day slides were washed, nuclei were stained with DAPI, and tissue sections were mounted. Immunofluorescence images of the slides were taken (FIG. 1A), and hypoxic area fraction across different treatment groups was normalized to DAPI staining.
# Immunofluorescence staining for Ki67 and CD8, performed as described above, confirmed the activation status of recruited CD8^+ T cells in osteosarcoma tumors (K7M2wt tumors) (FIGS. 9C-9D). […]
# tumors = assay: Interstitial fluid pressure, wick-in-needle technique; type: in vivo, mouse
# Protocol: Interstitial fluid pressure (IFP) was measured in vivo using the “wick-in-needle” technique after mice were anesthetized with i.p. injection of Avertin and prior to tumor excision. Additional information regarding the wick-in-needle technique is described in Dong et al., Involvement of mast cell chymase in burn wound healing in hamsters 2013; 5:643-7 and Shankaran et al. IFNγ and lymphocytes prevent primary tumour development and shape tumour immunogenicity 2001; 410:1107-11, the contents of which are incorporated herein by reference in their entirety.
# NIH3T3 cells = assay: Myofibroblast differentiation in co-culture, αSMA and collagen I immunofluorescence; type: cell-based, murine; conditions: co-culture with TGFβ and activated MCs
# Protocol: Given that both MCs and fibroblasts are present in the TME, the consequences of MC activation on myofibroblasts was explored using a co-culture assay in which murine MC/9 MCs and NIH3T3 myofibroblasts were separated by a transwell chamber with micropores that only allowed chemical communication (FIG. 13A). In this system, degranulation efficiency was determined by measuring the concentration of β-hexosaminidase (β-hex) in the supernatant. MC degranulation was induced through exposure to compound 48/80 (C48/80), which binds to the MRGPRB2 receptor (the orthologue of the human G-protein-coupled receptor MRGPRX2). […] Co-cultures treated with a vehicle control and Triton X-100 were used as internal assay control to evaluate background and maximum β-hex release, respectively. Transforming growth factor (TGF)-β1 was used as a fibroblast activator due to its capacity to induce a myofibroblast phenotype of the NIH3T3 cells. MC/9 cells were cultivated with NIH3T3 cells for 24 hours and then treated with either ketotifen or TGFβ for additional 24 hours in low serum medium, followed by a 30 minute sensitization with C48/80.
# To further explore the MC-fibroblast interaction, the differentiation process of NIH3T3 cells in the co-culture system was monitored by assaying levels of αSMA and collagen I, which are two markers of the myofibroblast phenotype, by immunofluorescence staining (FIG. 13C, FIG. 13D, and FIG. 13E).
smiles,measurement,setting,value
CN1CCC(=C2c3ccccc3CC(=O)c3sccc32)CC1 [ketotifen],pimonidazole positive fraction (hypoxia),K7M2wt tumors,significantly reduced; also recorded: alleviated hypoxia
same,interstitial fluid pressure (IFP),tumors; 10 mg/kg dose compared with the other doses,greatest effect
same,interstitial fluid pressure (IFP),"tumors; all doses of ketotifen, daily for 7 days",reduces; also recorded: reduction in IFP levels
same,myofibroblast differentiation (αSMA and collagen I protein expression),NIH3T3 cells,impaired this myofibroblast differentiation
